Here are results for three molecules from PMC2694132 (Cancer research, 2009).

The conditions of data set [1]: cited from earlier work; for apparent terminal half-life: patients treated with SAHA; for serum level relative to the parent compound (higher, on average): serum from patients treated with SAHA.
The target of data set [2] is T1, UGT1A8*3 (UGT1A8p.Cys277Tyr) (Homo sapiens, UniProt Q9HAW9, C277Y).
T1 sequence (Q9HAW9 26-530 C277Y): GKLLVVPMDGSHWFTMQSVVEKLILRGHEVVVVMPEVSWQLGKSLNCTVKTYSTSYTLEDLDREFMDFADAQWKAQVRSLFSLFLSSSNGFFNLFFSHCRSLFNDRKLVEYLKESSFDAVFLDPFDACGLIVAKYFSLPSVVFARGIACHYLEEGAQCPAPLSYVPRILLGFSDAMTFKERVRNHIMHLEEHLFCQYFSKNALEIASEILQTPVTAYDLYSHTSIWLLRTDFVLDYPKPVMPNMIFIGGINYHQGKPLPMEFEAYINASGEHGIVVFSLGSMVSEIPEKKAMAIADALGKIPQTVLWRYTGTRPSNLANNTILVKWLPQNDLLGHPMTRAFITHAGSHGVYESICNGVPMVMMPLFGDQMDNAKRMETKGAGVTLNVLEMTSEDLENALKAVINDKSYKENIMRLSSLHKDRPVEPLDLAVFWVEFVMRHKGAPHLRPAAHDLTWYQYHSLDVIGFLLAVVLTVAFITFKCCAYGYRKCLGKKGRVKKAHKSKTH
Put plainly: Glucuronidation, UGT1A8*3 variant cell homogenate. Format: in vitro ADME. The settings on record: data not shown.

Regarding `O=C(CCCCCCC(=O)Nc1ccccc1)NO[C@@H]1O[C@H](C(=O)O)[C@@H](O)[C@H](O)[C@H]1O` [SAHA-glucuronide], in data set [1], the apparent terminal half-life is listed as ~ 1.8 hours and the “serum level relative to the parent compound (higher, on average)” value was 3- to 4 fold.

As to `Cc1cc(=O)oc2cc(O)ccc12` [4-methylumbellifer-one], in data set [2], the “glucuronidation activity against 4-methylumbelliferone” value is listed as “detectable levels of activity”.

With `O=C(O)CCC(=O)Nc1ccccc1` [4-anilino-4-oxobutanoic acid], in data set [1], the apparent terminal half-life is 6 to 9 h and the “serum level relative to the parent compound (higher, on average)” value is reported as 10- to 13 fold.
